# Data as given in a melting point compilation (Tetko et al.; mined from patent text by program, amines drawn as free bases though some values may be those of a salt).
row,melting point [°C],Compound
1,156 to 158,CC(C)CC(NC(=O)C(Cc1ccccc1)NC(=O)C1CCCCC1CS)C(=O)O (centres undefined)
2,145,COc1cccc2c1c(C)c(CCC(=O)O)n2Cc1ccc(Cl)cc1
3,123,CC1COC(C(=O)C(C)(C)C)C(C(=O)C(C)(C)C)O1 (centres undefined)
4,154 to 156,CCOC(=O)C(=O)CC(=O)c1cn(Cc2ccc(OC)cc2)c2ccccc2c1=O
5,119 to 122,CSc1cc(C)nc(SC)c1NC(=O)CCCCCCCSc1nc2ccccc2o1
6,143 to 145,O=C(CCCN1CCCC1=O)Nc1ncccc1C(=O)c1cccs1
7,254 to 256,Cc1cc(C)c(N(C)C(=O)CN2C(=O)c3ccccc3C2=O)c(C)c1CO
8,157 to 159,O=C(O)C(=O)CC(=O)c1ccnn1Cc1ccc(F)cc1
9,165 to 166,O=C(O)CCCNC(=O)c1ccccc1SSc1ccccc1C(=O)NCCCC(=O)O
10,57 to 59,COC(=O)c1ccc2c(c1C(=O)OC)OCO2
11,130 to 132,CCCCCCCCCCC=CCc1c[nH]c(C(=O)NN)c1
12,350 to 354,Cc1cc2c(=O)n3cc(C(N)=O)ccc3nc2s1
13,105 to 107,CC(C)NS(=O)(=O)Cc1ccc(N)cc1
14,169 to 172,CCCCCC(CC(=O)Nc1cc(C(=O)Nc2ccncc2)ccc1C(C)(C)C)c1c(OC)cccc1OC (centres undefined)
15,174 to 177,CCOC(=O)C1=C(C)NC(C#N)=C(C(=O)OCC)C1c1cccc([N+](=O)[O-])c1 (centres undefined)
16,223 to 224,CC(C)(C)n1nc2c(N)nc3ccccc3c2c1CCCNS(C)(=O)=O
17,135 to 139,COc1cc(C(OC(C)=O)C(=O)O)cc(OC)c1OC (centres undefined)
18,228 to 230,NC(=O)c1c(C(=O)O)cnn1-c1cccc(Cl)c1Cl
19,148 to 151,CCOC(=O)C(=O)Nc1cc(Cl)c(Cl)c(Cl)c1
20,134 to 138,COC(=O)c1ccccc1C1=NC(C)(C(C)C)C(=S)N1 (centres undefined)
21,142 to 145,CC(=O)Oc1ccc2c(c1)cc(C(=O)O)n2C(C)=O
22,125,CCOC(=O)c1ccc(C(=O)c2ccc(N)cc2)cc1
23,125 to 126,COc1ccc(OC)c2c1C(=O)C=C(SCCCO)C2=O
24,145 to 146,CCCC(=O)c1cc2c(=O)c(C(=O)OCC)cn(CC)c2cc1C
25,123,NNC(=O)c1cn(C2CCN(Cc3ccccc3)C2)nn1 (centres undefined)
26,110 to 112,CCOC(=O)NC(CCSC)C(N)=O (racemic)

# Second part, the compound before the results:
row,Compound,melting point [°C]
1,COc1cc([N+](=O)[O-])ccc1-c1ccc(-c2ccc([N+](=O)[O-])cc2OC)o1,308 to 310
2,CC1CC2C3CCC4=CC(=O)CCC4=C3C=CC2(C)C1O (centres undefined),149 to 151
3,O=c1[nH]c2ccccc2n1-c1cc(Cl)ccc1O,248 to 250
4,CNC1(C)CN(c2nc3c(cc2F)c(=O)c(C(=O)O)cn3C(C)(C)C)C1,> 300
5,COc1ccc(-c2cc(=S)[nH]nc2-c2ccc(OC)c(F)c2)cc1,222 to 223
6,FC(F)(F)c1cc(Cl)c(-n2ncc(-c3nc(Br)c(Br)[nH]3)n2)c(Cl)c1,234 to 235
7,N#Cc1cc([N+](=O)[O-])ccc1NCCCn1ccnc1,177
8,COc1c(Cl)cc(OCC=C(Cl)Cl)cc1C=O,78
9,[N-]=[N+]=C1C(=O)Oc2ccc(S(=O)(=O)Cl)cc2C1=O,185
10,O=C(O)c1ccccc1Sc1ccccc1[N+](=O)[O-],169 to 171
11,COc1cc(Cc2cnc(N)nc2N)cc(OC)c1N(C)N=O,249 to 250
12,O=S(=O)(Nc1ccc2c(OCc3ccc(-c4ccccc4)cc3Cl)cccc2c1)C(F)(F)F,131 to 134
13,Cc1noc2cc(F)c(-n3c(=O)cc(C(F)(F)F)[nH]c3=O)cc12,235 to 237
14,COc1ccc(Cn2cnc3c(-c4ccco4)nc(OCc4ccccc4)nc32)cc1,122
15,COc1cc(Nc2nccc(-c3ccc(NC4CCCCC4O)nc3)n2)cc(OC)c1OC (centres undefined),147 to 148
16,O=S(=O)(C=Cc1ccc(F)cc1)Oc1ccccc1,108
17,Cc1cc(-n2cc(-c3ccc(S(C)(=O)=O)cc3)nc2C)cc2ccc(=O)[nH]c12,345 to 347
18,CC(=O)c1[nH]c2cc(Cl)cc(Cl)c2c1C,178
19,CN1C(=O)CCC2=C1CCc1cccc(F)c12,75 to 76
20,O=c1c2c(nc3n1CCc1c-3[nH]c3cc(Cl)cc(Cl)c13)CCCC2,296 to 297
21,CC12CCC(=O)C=C1CCC1C3CC(OCC(=O)c4ccccc4)C(O)(C(=O)CO)C3(C)CC(O)C12F (centres undefined),228 to 230
22,CN1C(=O)N(C)S(=O)(=O)N(c2ccc(Cl)cc2)C1=O,82 to 84
23,CSc1cc2ncnc(Nc3cccc(C)c3)c2cc1[N+](=O)[O-],230 to 231
24,O=C(Cc1ccc(Oc2ccccc2)cc1)NCCC1=CCCCC1,74 to 75

row,Compound,melting point [°C]
1,O=C(c1ccccc1)c1cccnc1Cl,35 to 37
2,COc1cc2ncnc(N3c4ccccc4CC3C)c2cc1OC (centres undefined),154 to 156
3,Cc1[nH]cc(C#N)c1-c1ccc(Cl)cc1C(=O)c1ccccc1Cl,206 to 208
4,CO/C=C(/C(=O)OC)c1ccccc1Oc1cc(N)ncn1,158 to 160
5,N#CC1=C(C2CCC2)Nc2n[nH]cc2C1c1cccc(C#N)c1Br (centres undefined),278
6,CC(C)n1nc(-c2ccc(N)nc2-c2ccccc2)ccc1=O,167 to 171
7,O=C(O)C1CCN(S(=O)(=O)c2ccc(Br)cc2)CC1,225 to 227
8,CC(C)(C)C(O)(Cn1cncn1)C(Cl)=CBr (centres undefined),45 to 48
9,[N-]=[N+]=C1c2ccccc2-c2ccc(F)cc21,89 to 90
10,Cc1noc(C)c1-c1ccncc1OC1SCC(O)C(O)C1O (centres undefined),175 to 179
11,C[C@@H]1Cc2cc3c(cc2C(c2ccc(N)cc2)=NN1c1ccccn1)OCO3,128 to 130
12,CCCN1CCC(Cc2ccc3c(c2)c(Cc2ccc(C(=O)NS(=O)(=O)c4ccccc4C)cc2OC)cn3C)C1=O (centres undefined),112 to 122
13,CC(=O)c1cnccc1-c1c(-c2ccccc2)nn2ccccc12,159 to 161
14,Fc1ccc(OC(CCN2CCN(c3ccccc3)CC2)c2ccccc2)cc1 (centres undefined),80 to 82
15,NS(=O)(=O)c1cccc(-c2cn(-c3nc(-c4ccc(Cl)c(Cl)c4)cc(C(F)(F)F)n3)cn2)c1,239
16,Cc1nc2cc(NC(=O)c3cc4cccnc4n3Cc3ccncc3)ccc2n1C,236 to 246
17,NS(=O)(=O)c1cc2cc(O)cnc2s1,270 to 271
18,C/C(=C\c1ccc(-c2ccccc2)cc1)C(=O)O,178
19,COc1ccc2c(c1)N(Cc1ccccc1)C(=O)[C@H]1CCC[C@H]1N2C(=O)CN1C(=O)c2ccccc2C1=O (relative stereo),244 to 245
20,CC(C)(C)Nc1nc(Cl)nc(Cl)n1,129 to 130
21,O=C(CN1C(=O)c2ccccc2C1=O)Nc1ccccc1Cc1ccccc1,232
22,COC(=O)c1cccc2c1c1c(OC)c3c(cc1n2Cc1ccccc1)CCCC3,144 to 146
23,COc1ccccc1-n1cnc2c(C(N)=O)nc(-c3cccc(O)c3)nc21,230 to 231
24,O=C1N=C2C(=O)SC=C2N1,177 to 180
